From US20140045890A1, “NOVEL COMPOUNDS” (SYNGENTA PARTICIPATIONS AG, priority 2011, published 2014) come the findings set out here.

One assay concerns Pythium ultimum. The assay is described as follows: Pythium ultimum / liquid culture (seedling damping off). The following applies: Globisporangium ultimum, liquid culture in PDB, 24° C., 2-3 days after application, read-out: inhibit fungal infestation (inhibition of growth determined photometrically). It counts as cell-based.
A further assay concerns Phytophthora infestans. The assay is described as follows: whole plant or invertebrate. It counts as in vivo. As to conditions: in Solanum lycopersicum, foliar, read-out: inhibit fungal infestation (percent disease control compared to untreated).
A further assay has as its system Plasmopara viticola. The assay is described as follows: Plasmopara viticola / grape / leaf disc preventative. It counts as in vivo. The following applies: foliar, grape vine leaf disks, inoculated 1 day after application, assessed 6-8 days after application, read-out: inhibit fungal infestation (percent disease control compared to untreated).
Assay [1] relates to Blumeria qraminis f. sp. tritici (Erysiphe qraminis f. sp. tritici). The assay is described as follows: Blumeria graminis f. sp. tritici / wheat / leaf disc preventative (powdery mildew on wheat). The following applies: foliar, wheat leaf segments cv. Kanzler, inoculated 1 day after application, assessed 6-8 days after application, read-out: inhibit fungal infestation (percent disease control compared to untreated). The format is in vivo.

Consider `C#Cc1cnc2ccc(OC(SC)C(=O)NC(C)(C)c3ccncc3)cc2c1` (stereo not shown) [Compound 35], for which the inhibition at 200 ppm with Pythium ultimum is at least 80%.
In the case of `C#Cc1cnc2c(C)cc(OC(SC)C(=O)NC(C)(C)c3ccncc3)cc2c1` (stereo not shown) [Compound 36], the inhibition at 200 ppm in the assay with Phytophthora infestans, in the assay with Plasmopara viticola and in the assay on Pythium ultimum was at least 80% each time.
In the case of `C#Cc1cnc2ccc(OC(SC)C(=O)NC3(c4ccccn4)CC3)cc2c1` (stereo not shown) [Compound 37], the inhibition at 200 ppm (in the assay with Phytophthora infestans; in assay [1]; in the assay on Pythium ultimum) was at least 80% each time.
In the case of `C#Cc1cnc2c(C)cc(OC(SC)C(=O)NC3(c4ccccn4)CC3)cc2c1` (stereo not shown) [Compound 38], the inhibition at 200 ppm in the assay with Plasmopara viticola and in the assay on Pythium ultimum was at least 80% each time.
Take `C#Cc1cnc2ccc(OC(SC)C(=O)NC(C)(C)c3cc(C(=O)OC)on3)cc2c1` (stereo not shown) [Compound 40]: the inhibition at 200 ppm in the assay with Phytophthora infestans and in the assay on Pythium ultimum was at least 80% throughout.
As to `C#Cc1cnc2c(C)cc(OC(SC)C(=O)NC(C)(C)c3cc(C(=O)OC)on3)cc2c1` (stereo not shown) [Compound 41], the inhibition at 200 ppm in the assay with Plasmopara viticola and in the assay with Pythium ultimum was at least 80% throughout.
Take `C#Cc1cnc2c(C)cc(OC(SC)C(=O)NC(C)(C)c3cc(CO)on3)cc2c1` (stereo not shown) [Compound 43]: the inhibition at 200 ppm with Phytophthora infestans, in the assay with Plasmopara viticola and with Pythium ultimum was at least 80% throughout.
Consider `C#Cc1cnc2ccc(OC(SC)C(=O)NC(C)(C)c3nocc3I)cc2c1` (stereo not shown) [Compound 49], for which the inhibition at 200 ppm in the assay on Phytophthora infestans, with Plasmopara viticola and in the assay on Pythium ultimum was at least 80% throughout.
On to `C#Cc1cnc2ccc(OC(SC)C(=O)NC(C)(C)c3noc4ccccc34)cc2c1` (stereo not shown) [Compound 50], for which the inhibition at 200 ppm in the assay on Plasmopara viticola and in the assay on Pythium ultimum was at least 80% each time.
In the case of `C#Cc1cnc2ccc(OC(SC)C(=O)NC(C)(C)c3cc(COC)on3)cc2c1` (stereo not shown) [Compound 52], the inhibition at 200 ppm (in the assay with Phytophthora infestans; with Plasmopara viticola; in assay [1]; in the assay on Pythium ultimum) was at least 80% each time.
`C#Cc1cnc2ccc(OC(SC)C(=O)NC(C)(C)c3noc(C)c3Cl)cc2c1` (stereo not shown) [Compound 54]: the inhibition at 200 ppm (with Phytophthora infestans; in the assay with Plasmopara viticola; in assay [1]; with Pythium ultimum) was at least 80% each time.
As for `C#Cc1cnc2ccc(OC(OC)C(=O)NC(C)(C)c3ccccn3)cc2c1` (stereo not shown) [Compound 55], the inhibition at 200 ppm (in the assay on Phytophthora infestans; in assay [1]; in the assay on Pythium ultimum) was at least 80% each time.
As to `C#Cc1cnc2c(C)cc(OC(SC)C(=O)NC(C)(C)c3cccnc3)cc2c1` (stereo not shown) [Compound 56], the inhibition at 200 ppm in the assay with Plasmopara viticola and with Pythium ultimum was at least 80% throughout.
As to `C#Cc1cnc2ccc(OC(SC)C(=O)NC(C)(C)c3cccnc3)cc2c1` (stereo not shown) [Compound 57], the inhibition at 200 ppm in the assay with Pythium ultimum is at least 80%.
With `C#Cc1cnc2ccc(OC(SC)C(=O)NC(C)(C)c3csc([Si](C)(C)C)n3)cc2c1` (stereo not shown) [Compound 58], the inhibition at 200 ppm in the assay on Pythium ultimum is at least 80%.
`C#Cc1cnc2ccc(OC(SC)C(=O)NC(C)(C)c3nscc3C(=O)OC)cc2c1` (stereo not shown) [Compound 61]: the inhibition at 200 ppm in the assay on Plasmopara viticola and with Pythium ultimum was at least 80% in each case.
Regarding `C#Cc1cnc2ccc(OC(SC)C(=O)NC(C)(C)c3cc(C(=O)OC)sn3)cc2c1` (stereo not shown) [Compound 62, methyl 3-[1-[[2-[(3-ethynyl-6-quinolyl)oxy]-2-methylsulfanyl-acetyl]amino]-1-methyl-ethyl]isothiazole-5-carboxylate], the inhibition at 200 ppm (in the assay with Plasmopara viticola; in assay [1]; with Pythium ultimum) was at least 80% in each case.
Regarding `C#Cc1cnc2ccc(OC(SC)C(=O)NC(C)(C)c3nc(C)c(C)s3)cc2c1` (stereo not shown) [Compound 63], the inhibition at 200 ppm (in assay [1]; in the assay on Pythium ultimum) was at least 80% each time.
Consider `C#Cc1cnc2ccc(OC(SC)C(=O)NC(C)(C)c3nocc3Br)cc2c1` (stereo not shown) [Compound 64], for which the inhibition at 200 ppm (with Phytophthora infestans; with Plasmopara viticola; in assay [1]; in the assay on Pythium ultimum) was at least 80% in each case.
As for `CSc1cnc2ccc(OC(SC)C(=O)NC(C)(C)c3nocc3Br)cc2c1` (stereo not shown) [Compound 65], the inhibition at 200 ppm with Pythium ultimum was at least 80%.
With `CSc1cnc2ccc(OC(SC)C(=O)NC(C)(C)c3cc(C)on3)cc2c1` (stereo not shown) [Compound 66], the inhibition at 200 ppm with Plasmopara viticola and with Pythium ultimum was at least 80% throughout.
Regarding `C#Cc1cnc2c(C)cc(OC(SC)C(=O)NC(C)(C)c3cc(C)on3)cc2c1` (stereo not shown) [Compound 67], the inhibition at 200 ppm (with Phytophthora infestans; in the assay on Plasmopara viticola; in assay [1]; with Pythium ultimum) was at least 80% in each case.
On to `C#Cc1cnc2c(F)cc(OC(SC)C(=O)NC(C)(C)c3cc(C)on3)cc2c1` (stereo not shown) [Compound 69], for which the inhibition at 200 ppm (with Phytophthora infestans; in the assay on Plasmopara viticola; in assay [1]; in the assay on Pythium ultimum) was at least 80% each time.
Take `C#Cc1cnc2cc(F)c(OC(SC)C(=O)NC(C)(C)c3cc(C)on3)cc2c1` (stereo not shown) [Compound 70]: the inhibition at 200 ppm in the assay with Phytophthora infestans was at least 80%.
In the case of `CSc1cnc2ccc(OC(SC)C(=O)NC(C)(C)c3cc(Cl)on3)cc2c1` (stereo not shown) [Compound 71], the inhibition at 200 ppm with Plasmopara viticola and with Pythium ultimum was at least 80% throughout.
Consider `C#Cc1cnc2c(C)cc(OC(SC)C(=O)NC(C)(C)c3cc(Cl)on3)cc2c1` (stereo not shown) [Compound 72], for which the inhibition at 200 ppm with Phytophthora infestans, with Plasmopara viticola and in the assay on Pythium ultimum was at least 80% in each case.
Regarding `CSc1cnc2ccc(OC(SC)C(=O)NC(C)(C)c3nocc3C)cc2c1` (stereo not shown) [Compound 74], the inhibition at 200 ppm in the assay on Pythium ultimum is at least 80%.
On to `C#Cc1cnc2c(Cl)cc(OC(SC)C(=O)NC(C)(C)c3nocc3C)cc2c1` (stereo not shown) [Compound 76], for which the inhibition at 200 ppm in the assay with Phytophthora infestans, in the assay with Plasmopara viticola and in the assay with Pythium ultimum was at least 80% each time.
`C#Cc1cnc2c(F)cc(OC(SC)C(=O)NC(C)(C)c3nocc3C)cc2c1` (stereo not shown) [Compound 77]: the inhibition at 200 ppm (in the assay with Phytophthora infestans; in the assay on Plasmopara viticola; in assay [1]; in the assay on Pythium ultimum) was at least 80% throughout.
`C#Cc1cnc2ccc(OC(SC)C(=O)NCc3ncc(C)s3)cc2c1` (stereo not shown) [Compound 79]: the inhibition at 200 ppm (in assay [1]; in the assay on Pythium ultimum) was at least 80% each time.
For `C#Cc1cnc2ccc(OC(SC)C(=O)NC(C)(C)c3cc(CC)on3)cc2c1` (stereo not shown) [Compound 82], the inhibition at 200 ppm (in the assay on Phytophthora infestans; in the assay with Plasmopara viticola; in assay [1]; in the assay on Pythium ultimum) was at least 80% in each case.
As to `C#Cc1cnc2ccc(OC(SC)C(=O)NC(C)(C)c3cc(C(F)(F)F)on3)cc2c1` (stereo not shown) [Compound 83], the inhibition at 200 ppm (in the assay on Phytophthora infestans; in the assay with Plasmopara viticola; in assay [1]; with Pythium ultimum) was at least 80% each time.
With `C#Cc1cnc2c(F)cc(OC(SC)C(=O)NC(C)(C)c3cc(C(F)(F)F)on3)cc2c1` (stereo not shown) [Compound 91], the inhibition at 200 ppm with Phytophthora infestans and in the assay with Plasmopara viticola was at least 80% throughout.
Consider `C#Cc1cnc2c(Cl)cc(OC(SC)C(=O)NC(C)(C)c3cc(C(F)(F)F)on3)cc2c1` (stereo not shown) [Compound 99], for which, in the assay on Plasmopara viticola, the inhibition at 200 ppm is at least 80%.
On to `COCc1cc(C(C)(C)NC(=O)C(Oc2ccc3ncc(SC)cc3c2)SC)no1` (stereo not shown) [Compound 100], for which the inhibition at 200 ppm in the assay on Phytophthora infestans, in the assay with Plasmopara viticola and in the assay with Pythium ultimum was at least 80% in each case.
With `CCc1cc(C(C)(C)NC(=O)C(Oc2ccc3ncc(SC)cc3c2)SC)no1` (stereo not shown) [Compound 103], the inhibition at 200 ppm with Plasmopara viticola and with Pythium ultimum was at least 80% in each case.
Consider `CSc1cnc2ccc(OC(SC)C(=O)NC(C)(C)c3cc(C(F)(F)F)on3)cc2c1` (stereo not shown) [Compound 104], for which the inhibition at 200 ppm with Plasmopara viticola and in the assay with Pythium ultimum was at least 80% each time.
As to `CSC(Oc1ccc2ncc(I)cc2c1)C(=O)NC(C)(C)c1cc(C(F)(F)F)on1` (stereo not shown) [Compound 108], the inhibition at 200 ppm in the assay on Plasmopara viticola and in the assay on Pythium ultimum was at least 80% each time.
Regarding `CSc1cnc2ccc(OC(SC)C(=O)NC(C)(C)c3cccc(C)n3)cc2c1` (stereo not shown) [Compound 114], in the assay on Pythium ultimum, the inhibition at 200 ppm was at least 80%.
Consider `C#Cc1cnc2c(F)cc(OC(SC)C(=O)NCc3nccs3)cc2c1` (stereo not shown) [Compound 115], for which the inhibition at 200 ppm (in assay [1]; in the assay on Pythium ultimum) was at least 80% throughout.
For `CSc1cnc2ccc(OC(SC)C(=O)NCc3nccs3)cc2c1` (stereo not shown) [Compound 118], the inhibition at 200 ppm in the assay with Pythium ultimum is at least 80%.
Turning to `C#Cc1cnc2c(F)cc(OC(SC)C(=O)NCc3nc(C)cs3)cc2c1` (stereo not shown) [Compound 119], the inhibition at 200 ppm (in the assay on Plasmopara viticola; in assay [1]; in the assay on Pythium ultimum) was at least 80% in each case.
For `C#Cc1cnc2c(Cl)cc(OC(SC)C(=O)NCc3nc(C)cs3)cc2c1` (stereo not shown) [Compound 120], the inhibition at 200 ppm (in the assay with Plasmopara viticola; in assay [1]; with Pythium ultimum) was at least 80% in each case.
In the case of `CSc1cnc2ccc(OC(SC)C(=O)NCc3nc(C)cs3)cc2c1` (stereo not shown) [Compound 121], the inhibition at 200 ppm in the assay with Pythium ultimum is at least 80%.
For `C#Cc1cnc2c(F)cc(OC(SC)C(=O)NCc3ncc(C)s3)cc2c1` (stereo not shown) [Compound 122], the inhibition at 200 ppm (in assay [1]; in the assay with Pythium ultimum) was at least 80% each time.
Turning to `CSC(Oc1cc(C)c2ncc(I)cc2c1)C(=O)NCc1cccnc1` (stereo not shown) [Compound 125], in the assay with Pythium ultimum, the inhibition at 200 ppm was at least 80%.
As to `CSC(Oc1cc(C)c2ncc(I)cc2c1)C(=O)NCc1ccc(Cl)nc1` (stereo not shown) [Compound 127], the inhibition at 200 ppm in assay [1] was at least 80%.
